Source: publication PMC9475448, “What a difference a methylene makes: replacing Glu with Asp or Aad in the Lys-urea-Glu pharmacophore of PSMA-targeting radioligands to reduce kidney and salivary gland uptake” (Theranostics, 2022)

What was measured:
[1] = target: T1, PSMA (Homo sapiens, UniProt Q04609); parameters: method as in PMID 30251544; details: same assay conditions, reported previously; cited from earlier work
T1 construct: LNCaP cells (400,000/well) were plated onto a 24-well poly-D-lysine coated plate for 48 h; endogenous in cells; host or cells: LNCaP prostate cancer cells
T1 sequence (Q04609 whole entry): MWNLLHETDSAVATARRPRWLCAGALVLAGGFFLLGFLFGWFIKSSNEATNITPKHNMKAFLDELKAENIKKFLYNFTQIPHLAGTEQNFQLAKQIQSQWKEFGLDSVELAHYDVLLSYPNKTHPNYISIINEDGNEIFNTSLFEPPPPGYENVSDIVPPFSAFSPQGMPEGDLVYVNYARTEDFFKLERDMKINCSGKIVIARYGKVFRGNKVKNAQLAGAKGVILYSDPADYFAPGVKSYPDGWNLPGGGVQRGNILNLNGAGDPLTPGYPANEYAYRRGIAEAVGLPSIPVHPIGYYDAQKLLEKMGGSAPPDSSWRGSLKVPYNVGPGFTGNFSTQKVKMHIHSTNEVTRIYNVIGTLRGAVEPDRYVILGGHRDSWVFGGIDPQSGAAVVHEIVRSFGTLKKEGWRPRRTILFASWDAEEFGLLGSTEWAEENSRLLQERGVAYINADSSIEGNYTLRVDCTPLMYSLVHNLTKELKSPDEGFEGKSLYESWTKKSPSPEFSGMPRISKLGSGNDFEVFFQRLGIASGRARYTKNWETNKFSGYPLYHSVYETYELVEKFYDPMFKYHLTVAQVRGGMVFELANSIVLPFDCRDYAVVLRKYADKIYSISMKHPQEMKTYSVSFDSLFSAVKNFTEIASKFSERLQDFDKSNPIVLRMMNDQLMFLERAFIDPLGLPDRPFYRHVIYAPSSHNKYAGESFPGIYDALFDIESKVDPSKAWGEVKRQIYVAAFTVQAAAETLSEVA

[2] = tested on: mouse kidneys and salivary glands; assay: Biodistribution of previously reported [68Ga]Ga-HTK03041 in mice; type: in vivo; details: 1h post-injection, unreported data of the earlier study
[3] = tested on: mouse kidneys and salivary glands; parameters: method as in PMID 32859704; details: 1h post-injection; cited from earlier work

Salivary gland uptake [2] [%IA/g]	Compound	Ki [1] [pM]	Kidney uptake [3] [%IA/g]
	O=C([O-])CN1CCN(CC(=O)[O-])CCN(CC(=O)NCC2CCC(C(=O)N[C@@H](Cc3ccc4ccccc4c3)C(=O)NCCCC[C@H](NC(=O)N[C@@H](CCC(=O)O)C(=O)O)C(=O)O)CC2)CCN(CC(=O)[O-])CC1.[Lu+3] (stereo partly drawn) [Lu-PSMA-617]	240 ± 60	
4.99±0.88	O=C([O-])CN1CCN(CC(=O)[O-])CCN(CC(=O)NCC2CCC(C(=O)NC(Cc3c4ccccc4cc4ccccc34)C(=O)NCCCCC(NC(=O)NC(CCC(=O)O)C(=O)O)C(=O)O)CC2)CCN(CC(=O)[O-])CC1.[68Ga+3] (stereo not drawn) [[^68Ga]Ga-HTK03041]		170±26.4
